# According to paper PMC9917735, “Optimization of the Hemolysis Assay for the Assessment of Cytotoxicity” (International Journal of Molecular Sciences, 2023):
# Where two headings read alike, the source gives them in different places. No end group written: not given here.
# Assays:
# human whole blood = settings: human whole blood, 60 min 37 °C; for Calculated hemolysis ratio: peptides 100 μM, neg. PBS, 3 x 2 replicates
# [1] = system: washed human erythrocytes; test: Hemolysis assay, washed human erythrocytes
# [2] = system: washed human erythrocytes; test: Flow cytometry of treated erythrocytes with live/dead amine-reactive stain; type: cell-based; settings: washed human erythrocytes treated 60 minutes, AMPs 100 μM, amine-reactive dye 488, flow cytometry 533/30 nm
# Description: Briefly, a 1% washed erythrocyte solution was diluted to ~10^5 cells/mL and 0.4% Trypan blue (1:1 ratio) was added before 10 μL of the stained cell suspension was added to the Countess cell counting chamber slide. After a 30 s incubation, the slide was inserted into the instrument for automatic cell counting.
# The Countess II automated cell counter (see above) was used to adjust the negative control sample to ~10^5 cells/mL and to subsequently dilute all samples by the same factor. Then, 0.5 μL of live/dead amine-reactive dye 488 (Fisher Scientific, Waltham, MA, USA) was added to 0.5 mL cell suspension and incubated for 30 min protected from light. Subsequently, the samples were washed twice with PBS pH 7 containing 1% bovine serum albumin (BSA), and finally resuspended in PBS pH 7 with 1% BSA. Cells were next counted, and the fluorescence measured using the 533/30 nm filter in an Accuri C6 flow cytometer (BD Biosciences, Franklin Lakes, NJ, USA).
# mouse erythrocytes = settings: Table 1, 1% erythrocytes, 100 µM
# Description: (§1) Cytotoxicity studies are important during characterization of novel compounds or materials intended for interactions within human biological systems in vivo. Evaluation of the extent to which the compound induces disruption of the membrane of erythrocytes (red blood cells), thereby causing release of cellular content, often constitutes an initial step in such cytotoxicity assessments. The assay used in this context is generally referred to as the hemolysis assay, which has the advantages of being cheap, accessible, and simple to perform. Blood is drawn from a human or an animal, and next, the washed erythrocytes are incubated together with the compound or material under investigation. If the compound causes hemolysis, hemoglobin (along with other cellular constituents) will be released into the supernatant.
# (§2) Blood from mice, rats, and rabbits was provided by the Department of Comparative Medicine at Oslo University Hospital (Marianne Aannestad). For mice and rats, the blood was collected from the heart by using 25 G and 21 G needles, respectively, whereas for rabbits, the blood was collected by free bleed through the ear using a yellow neoflon (24 G). All animals were wild type and anesthetized prior to the procedure.
# (§3) All blood was collected in Lithium Heparin tubes 4 mL (Greiner Bio-One, Kremsmünster, Austria) or Coagulation sodium citrate 3.2% tubes 3 mL (Greiner Bio-One).
# (§4) AMP 2 contained an N-terminal hexanoic acid moiety, whereas all peptides contained amidated C-termini. These three peptides were synthesized by Genscript Inc. (Piscataway, NJ, USA), and stock solutions of 1 mg/mL were made from the purchased powders. […] All peptides were diluted to yield a 100 μM final concentration in the hemolysis assays.
# (§5) Triton X-100 (T8787) and Tween-20 (P2287) detergents were purchased from Sigma Aldrich and diluted to obtain 10% stock solutions by weighing (w/v). A sodium Dodecyl Sulfate (SDS) 10% solution was purchased from Invitrogen (Waltham, MA, USA, 15553027). All subsequent dilutions annotated in figures were made from these stocks.
# (§6) As soon as possible after phlebotomy, the blood samples were centrifuged at 1700× g for 5 min. The supernatant was removed by aspiration and 2 mL of PBS pH 7 was added. The washing step was repeated three times or until the supernatant was clear. After final aspiration, the remaining pellet was diluted 1:100 in PBS pH 7 to obtain a 1% erythrocyte suspension (or 1:100, 1:50, and 1:20 for assays testing the effect of erythrocyte concentration). For experiments using whole blood, the washing steps were not performed, but downstream experimentation was identical. For experiments performed with 96-well plates, 50 μL of test compound, water, or detergent were mixed with 50 μL of blood sample (1% erythrocyte suspension or whole blood). For experiments using larger volumes, 250 μL of test compound, water, or detergent were mixed with 250 μL blood sample in an Eppendorf tube. Samples were subsequently incubated at 37 °C for 60 min (or 15, 30, 60, 90, or 120 min for assays evaluating the effect of incubation time). After incubation, the plates/tubes were centrifuged at 1700× g for 5 min, and then 50 μL of the supernatants were transferred to transparent, flat-bottom 96-well plates (Anicrin, A013418). Finally, absorption was measured at 405, 530, and 570 nm in a Victor Nivo Multimode microplate reader (Perkin Elmer, Waltham, MA, USA).
# rabbit erythrocytes = settings: Table S4: washed rabbit erythrocytes, OD 405 nm, AMPs 100 μM, 1 hour 37 °C, pos. 10% Triton X-100, neg. PBS; 3 x 2 replicates
# Description: as §1, §2, §3, §4, §5, §6
# rabbit whole blood = settings: cf. Tables S3 and S4; 100 μM
# Description: as §1, §2, §3, §4, §5, §6
# rat erythrocytes = settings: Table S4: washed rat erythrocytes, OD 405 nm, AMPs 100 μM, 1 hour 37 °C, pos. 10% Triton X-100, neg. PBS; 3 x 2 replicates
# Description: as §1, §2, §3, §4, §5, §6
# [3] = cited from earlier work
# Description: OD measurements of human whole blood treated with hemolyzing agents or AMPs at 405 nm (A), 530 nm (B), and 570 nm (C) were recorded (Figure 6) and HRs calculated (Table 5). For comparison, we also included the two previously well-characterized AMPs melittin and polymyxin B, which exert high and low cytotoxicity, respectively. […] From 530 and 570 nm measurements, the expected conce ...
# [4] = 10% detergent, highest absorbance
# [5] = OD 405 nm (signal saturated), pos. 10% SDS
# [6] = OD 570 nm, pos. 10% Triton X-100 (table title; text says 10% SDS)
# [7] = human individual # 1, 1% erythrocytes, AMPs 100 µM, 60 min 37 °C, 405 nm, pos. 10% Triton X, neg. PBS, 3 x 2 replicates
# [8] = human individual # 2, 1% erythrocytes, AMPs 100 µM, 60 min 37 °C, 405 nm, pos. 10% Triton X, neg. PBS, 3 x 2 replicates
# [9] = human individual # 3, 1% erythrocytes, AMPs 100 µM, 60 min 37 °C, 405 nm, pos. 10% Triton X, neg. PBS, 3 x 2 replicates
# [10] = human individual # 4, 1% erythrocytes, AMPs 100 µM, 60 min 37 °C, 405 nm, pos. 10% Triton X, neg. PBS, 3 x 2 replicates
# [11] = human individual # 5, 1% erythrocytes, AMPs 100 µM, 60 min 37 °C, 405 nm, pos. 10% Triton X, neg. PBS, 3 x 2 replicates
# [12] = human individual # 6, 1% erythrocytes, AMPs 100 µM, 60 min 37 °C, 405 nm, pos. 10% Triton X, neg. PBS, 3 x 2 replicates
# [13] = human individual # 7, 1% erythrocytes, AMPs 100 µM, 60 min 37 °C, 405 nm, pos. 10% Triton X, neg. PBS, 3 x 2 replicates
# [14] = human individual # 8, 1% erythrocytes, AMPs 100 µM, 60 min 37 °C, 405 nm, pos. 10% Triton X, neg. PBS, 3 x 2 replicates
# [15] = human individual # 9, 1% erythrocytes, AMPs 100 µM, 60 min 37 °C, 405 nm, pos. 10% Triton X, neg. PBS, 3 x 2 replicates
# [16] = human individual # 10, 1% erythrocytes, AMPs 100 µM, 60 min 37 °C, 405 nm, pos. 10% Triton X, neg. PBS, 3 x 2 replicates
compound,measurement,setting,value
"CCCCCCCCCCCCOS(=O)(=O)[O-].[Na+] [SDS, Sodium Dodecyl Sulfate, reference compound]",Absorbance of free hemoglobin at 530 nm,human whole blood; [4],2.2
same,Absorbance of free hemoglobin at 570 nm,human whole blood; [4],1.7
same,Peak OD of free hemoglobin,"[1]; at 0.02% detergent, human erythrocytes, decreases at higher concentrations (Figure S3)","0,8"
"O [dH2O, distilled water]",Fluorescence intensity per cell of remaining intact cells (live/dead stain),[2],low fluorescence
same,Calculated hemolysis ratio,human whole blood; [5],98.2 ± 0.4%
same,Calculated hemolysis ratio,"human whole blood; OD 530 nm, pos. 10% SDS",38.4 ± 8.5%
same,Calculated hemolysis ratio,human whole blood; [6],62.8 ± 1.4%
same,Calculated hemolysis ratio,"[1]; 1% washed human erythrocytes, OD 530 nm, peptides 100 μM, 60 min 37 °C, pos. 10% Triton X-100, neg. PBS, 3 x 2 replicates",67.6 ± 8.7%
same,Calculated Hemolysis (%),"[1]; 2% pooled human erythrocytes, AMPs 100 µM, 60 min 37 °C, 405 nm, pos. 10% Triton X-100, neg. PBS, 3 x 2 replicates",27.1 ± 2.7%
same,Calculated Hemolysis (%),"[1]; 5% pooled human erythrocytes, AMPs 100 µM, 60 min 37 °C, 405 nm, pos. 10% Triton X-100, neg. PBS, 3 x 2 replicates",22.7 ± 9%
same,Calculated hemolysis ratio,"[1]; Table 2: pooled blood from all 10 individuals, 1% erythrocytes, AMPs 100 µM, 60 min 37 °C, 405 nm, pos. 10% Triton X, neg. PBS, 3 x 2 replicates",32.6 ± 7.3%
same,Calculated Hemolysis (%),"[1]; Table 3: 1% pooled human erythrocytes, AMPs 100 µM, 60 min 37 °C, 405 nm, pos. 10% Triton X-100, neg. PBS, 3 x 2 replicates",32.6 ± 7.3%
same,Calculated hemolysis ratio,"[1]; Table 4: incubation 60 min, 37 °C, 1% human erythrocytes, AMPs 100 µM, 405 nm, pos. 10% Triton X-100, neg. PBS, 3 biological x 2 technical replicates",37.1 ±14.2%
same,Calculated hemolysis ratio,"[1]; Table 6: 1% washed human erythrocytes, OD 405 nm, peptides 100 μM, 60 min 37 °C, pos. 10% Triton X-100, neg. PBS, 3 x 2 replicates",73.9 ± 7.5%
same,Calculated hemolysis ratio,[1]; [7],38 ± 12.3%
same,Calculated hemolysis ratio,[1]; [8],57.7 ± 12.2%
same,Calculated hemolysis ratio,[1]; [9],50.8 ± 8.8%
same,Calculated hemolysis ratio,[1]; [10],47.2 ± 5.6%
same,Calculated hemolysis ratio,[1]; [11],38.8 ± 12.1%
same,Calculated hemolysis ratio,[1]; [12],36.2 ± 10.8%
same,Calculated hemolysis ratio,[1]; [13],49.6 ± 15.2%
same,Calculated hemolysis ratio,[1]; [14],49.4 ± 16.9%
same,Calculated hemolysis ratio,[1]; [15],49.1 ± 22.5%
same,Calculated hemolysis ratio,[1]; [16],39.4 ± 10.7%
same,Calculated hemolysis ratio,"[1]; incubated in polypropylene tubes, 1% washed human erythrocytes, peptides 100 μM, 60 min 37 °C, 405 nm, pos. 10% Triton X-100, neg. PBS, 3 x 2 replicates",29.5 ± 6%
same,Calculated hemolysis ratio,"[1]; incubated in polystyrene tubes, 1% washed human erythrocytes, peptides 100 μM, 60 min 37 °C, 405 nm, pos. 10% Triton X-100, neg. PBS, 3 x 2 replicates",43.1 ± 18.6%
same,Calculated hemolysis ratio,"[1]; incubation 15 min, 37 °C, 1% human erythrocytes, AMPs 100 µM, 405 nm, pos. 10% Triton X-100, neg. PBS, 3 biological x 2 technical replicates",32.8 ± 12.1%
same,Calculated hemolysis ratio,"[1]; incubation 30 min, 37 °C, 1% human erythrocytes, AMPs 100 µM, 405 nm, pos. 10% Triton X-100, neg. PBS, 3 biological x 2 technical replicates",34.8 ± 12.7%
same,Calculated hemolysis ratio,"[1]; incubation 90 min, 37 °C, 1% human erythrocytes, AMPs 100 µM, 405 nm, pos. 10% Triton X-100, neg. PBS, 3 biological x 2 technical replicates",40.1 ±13.9%
same,Calculated hemolysis ratio,"[1]; incubation 120 min, 37 °C, 1% human erythrocytes, AMPs 100 µM, 405 nm, pos. 10% Triton X-100, neg. PBS, 3 biological x 2 technical replicates",47 ± 13.6%
same,Calculated hemolysis ratio,"[1]; total incubation volume 100 μL, 1% washed human erythrocytes, peptides 100 μM, 60 min 37 °C, 405 nm, pos. 10% Triton X-100, neg. PBS, 3 x 2 replicates",43.1 ± 18.6%
same,Calculated hemolysis ratio,"[1]; total incubation volume 500 μL, 1% washed human erythrocytes, peptides 100 μM, 60 min 37 °C, 405 nm, pos. 10% Triton X-100, neg. PBS, 3 x 2 replicates",31.4 ± 10.7%
MNLVDRAILIRKRRRAALQLRDKVLRYLK-NH2 [AMP 1],HR in mouse sample compared to rabbit sample,mouse erythrocytes,over four times higher
same,Hemolysis ratio,rabbit erythrocytes,7.1 +/- 1.1%
same,Fold decrease of hemolytic effect in rabbit whole blood vs washed rabbit erythrocytes,rabbit whole blood,slightly increased hemolytic effect
same,Hemolysis ratio,rat erythrocytes,12.9 +/- 1.7%
same,Minimum inhibitory concentration (E. coli),E. coli,2 µM
same,Fold difference in HR at 120 min incubation relative to the shortest incubation times,"[1]; 1% washed human erythrocytes, 405 nm, Table 4",1.65 fold
same,Calculated hemolysis ratio,[1]; [7],21.9 ± 4%
same,Calculated hemolysis ratio,[1]; [8],23 ± 2.8%
same,Calculated hemolysis ratio,[1]; [9],23.7 ± 2.1%
same,Calculated hemolysis ratio,[1]; [10],21.3 ± 3%
same,Calculated hemolysis ratio,[1]; [11],19.7 ± 3.7%
same,Calculated hemolysis ratio,[1]; [12],19.6 ± 4.7%
same,Calculated hemolysis ratio,[1]; [13],18.8 ± 4%
same,Calculated hemolysis ratio,[1]; [14],21.7 ± 8.6%
same,Calculated hemolysis ratio,[1]; [15],22.9 ± 6.8%
same,Calculated hemolysis ratio,[1]; [16],25.1 ± 13%
same,Observed hemolytic properties (qualitative),[1]; reason for choice of the AMPs,medium
"Polymyxin B [PMB, reference compound]",Calculated hemolysis ratio,human whole blood; [5],3.1 ± 1.1%
same,Calculated hemolysis ratio,"human whole blood; OD 530 nm, pos. 10% SDS",3 ± 2.4%
same,Calculated hemolysis ratio,human whole blood; [6],4.5 ± 1.8%
same,Cytotoxicity (qualitative),[3],low
Tween-20 [reference compound],Blood clotting in whole blood,human whole blood; melittin 100 μM,tendency of the blood to clot at higher Tween concentrations
